# Like-named read-outs stand apart in the source and are kept apart here.
# Experiments:
# S1P1 receptor = target: T1, S1P1 receptor (Homo sapiens, UniProt P21453); assay: S1P1 receptor agonistic activity assay (PathHunter cell strain, chemiluminescent signal detection); assay type: cell-based; conditions: PathHunter cells, agonist mode, 37° C. for 90-180 minutes
# T1 construct: expressed in transfected cells
# Procedure: 1. A PathHunter cell strain was thawed according to standard procedures;
# 2. The cell was seeded in 20 μl 384-well microplates and incubated at 37° C. for an appropriate time.
# 1. For an agonist assay, the cell was incubated with the sample to be tested to initiate a reaction;
# 2. The stock to be tested is diluted 5 folds to be a buffer solution;
# 3. The 5-fold diluted solution (5 μL) was added to the cells and incubated at 37° C. for 90-180 minutes. The solvent concentration was 1%.
# 1. 12.5 μL or 15 μL of PathHunter detection reagent (50 vol. %) was added in one portion and then incubated for 1 hour at room temperature to generate a detection signal;
# 2. The microplate was read using a PerkinElmer Envision™ instrument for chemiluminescent signal detection.
# 1. Compound activity analysis was performed using a CBIS Data Analysis Kit;
# 2. Calculation formula: % activity=100%×(average RLU of sample to be test-average RLU of solvents)/(average maximum control ligand−average RLU of solvents)
# [1] = Evaluation of compounds' pharmacokinetics in SD rats in vivo (intravenous injection and oral administration); design: species or system Sprague Dawley rats; conditions: single intravenous injection and oral administration; for AUC: read-out: Concentration integral AUC; for half-life: read-out: Half life T1/2 (converted); for bioavailability: oral, read-out: Bioavailability F
# Procedure: Objective: To test the pharmacokinetics of compounds in SD rats in vivo.
# Sprague Dawley rats (male, 200-300 g, 7-9 weeks old, Shanghai Slack)
# The pharmacokinetics profile of the compound in rodent after intravenous injection and oral administrations was tested using a standard protocol. In the assay, the candidate compound was formulated into a clear solution, and was given to the rats through a single intravenous injection and oral administration. The vehicles for the intravenous injection and oral administration were an aqueous hydroxypropyl β-cyclodextrin solution or dimethyl sulfoxide in aqueous PEG400 solution in a proper proportion. The whole blood samples were collected within 24 hours, centrifuged at 3000 g for 15 minutes, and plasma samples were obtained by separating the supernatant. 4 times volume of acetonitrile solution containing an internal standard was added to precipitate proteins. After centrifugation, the supernatant was collected, to which an equal volume of water was added, and further centrifuged to collect the supernatant. The LC-MS/MS method was used to quantitatively analyze the plasma concentration, and the pharmacokinetics parameters, such as peak concentration, peak time, clearance rate, half-life, area under the curve, and bioavailability were calculated.
# [2] = male, Sprague-Dawley, rat, plasma, 3 mg/kg, 3 mpk
# [3] = male, Sprague-Dawley, rat, plasma, intravenous, 3 mg/kg, 3 mpk, read-out: Clearance
# [4] = male, Sprague-Dawley, rat, plasma, 2 mg/kg, 2 mpk
# T1 sequence (P21453 whole entry): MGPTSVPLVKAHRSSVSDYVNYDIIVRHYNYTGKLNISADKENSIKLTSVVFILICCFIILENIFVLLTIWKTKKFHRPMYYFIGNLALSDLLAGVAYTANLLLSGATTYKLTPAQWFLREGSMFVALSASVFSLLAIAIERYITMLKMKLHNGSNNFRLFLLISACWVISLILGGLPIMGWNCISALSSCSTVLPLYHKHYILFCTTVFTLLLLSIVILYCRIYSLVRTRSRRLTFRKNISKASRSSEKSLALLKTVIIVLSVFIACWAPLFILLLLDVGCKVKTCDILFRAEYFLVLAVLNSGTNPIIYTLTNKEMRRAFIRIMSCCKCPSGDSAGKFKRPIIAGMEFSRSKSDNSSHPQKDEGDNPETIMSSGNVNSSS
Structure (SMILES),EC50 (S1P1 receptor) [nM],further results
"CC(C)Oc1ccc(-c2nc(-c3cccc4c3CCC43CC(=O)N(CCO)C3)no2)cc1C#N (single isomer, unassigned) [Example 21 isomer 1]",≤ 10,"AUC [1, 2]: 12.6 µM·h; half-life [1, 2]: 181 min; clearance [1, 3]: 8.65 mL/min/kg; bioavailability [1, 2]: 100%"
"CC(C)Oc1ccc(-c2nc(-c3cccc4c3CCC43CC(=O)N(CCO)C3)no2)cc1C#N (single isomer, unassigned) [Example 21 isomer 2]",–,"Bioavailability F ([1]; 3 mpk, 3 mg/kg): 89.6%; Concentration integral AUC ([1]; 3 mpk, 3 mg/kg): 8.483 µM·h; Half life T1/2 ([1]; 3 mpk, 3 mg/kg): 3.22 h; clearance ([1]; 3 mpk, 3 mg/kg): 11.6 mL/min/kg"
"CC(C)Oc1ccc(-c2nc(-c3cccc4c3CCC43CCN(C4CC(C(=O)O)C4)C3)no2)cc1C#N (single isomer, unassigned) [Example 47 Isomer 3]",–,"Bioavailability F ([1]; 3 mpk, 3 mg/kg): 48.7%; AUC [1, 2]: 5.66 µM·h; half-life [1, 2]: 239 min; clearance [1, 3]: 8.81 mL/min/kg"
"CC(C)Oc1ccc(-c2nc(-c3cccc4c3CCC43CCN(C4CC(C(=O)O)C4)C3)no2)cc1C#N (single isomer, unassigned) [Example 47 Isomer 4]",–,"Bioavailability F ([1]; 3 mpk, 3 mg/kg): 89.6%; Concentration integral AUC ([1]; 3 mpk, 3 mg/kg): 8.483 µM·h; Half life T1/2 ([1]; 3 mpk, 3 mg/kg): 3.22 h; clearance ([1]; 3 mpk, 3 mg/kg): 11.6 mL/min/kg"
O=C1CC2(CCc3c(-c4noc(-c5ccc(Cl)cc5)n4)cccc32)CN1CCO (stereo not drawn) [Example 1],> 100,–
O=C1CC2(CCc3c(-c4noc(-c5cccc(Cl)c5)n4)cccc32)CN1CCO (stereo not drawn) [Example 2],> 100,–
O=C1CC2(CCc3c(-c4noc(-c5ccccc5Cl)n4)cccc32)CN1CCO (stereo not drawn) [Example 3],> 100,–
COc1ccc(-c2nc(-c3cccc4c3CCC43CC(=O)N(CCO)C3)no2)cc1 (stereo not drawn) [Example 4],> 100,–
CC(C)Oc1ccc(-c2nc(-c3cccc4c3CCC43CC(=O)N(CCO)C3)no2)c(C#N)c1 (stereo not drawn) [Example 12],> 100,–
CC(C)Oc1ccc(-c2nc(-c3cccc4c3CCC43CC(=O)N(CCO)C3)no2)cc1 (stereo not drawn) [Example 13],> 100,–
Cc1ccc(-c2nc(-c3cccc4c3CCC43CC(=O)N(CCO)C3)no2)cc1 (stereo not drawn) [Example 16],> 100,–
CC(C)c1ccc(-c2nc(-c3cccc4c3CCC43CC(=O)N(CCO)C3)no2)cc1 (stereo not drawn) [Example 17],> 100,–
CC(C)Oc1ccc(-c2nc(-c3cccc4c3CCC43CC(=O)N(CCO)C3)no2)cc1Br (stereo not drawn) [Example 22],≤ 10,–
COCCN1CC2(CCc3c(-c4noc(-c5ccc(OC(C)C)c(C#N)c5)n4)cccc32)CC1=O (stereo not drawn) [Example 24],≤ 10,–
CC(C)Oc1ccc(-c2nc(-c3cccc4c3CCC43CC(=O)N(CCS(C)(=O)=O)C3)no2)cc1C#N (stereo not drawn) [Example 25],≤ 10,–
CC(C)Oc1ccc(-c2nc(-c3cccc4c3CCC43CC(=O)N(CC(=O)N(C)C)C3)no2)cc1C#N (stereo not drawn) [Example 26],≤ 10,–
CC(C)Oc1ccc(-c2nc(-c3cccc4c3CCC43CCN(CCO)C3=O)no2)cc1C#N (stereo not drawn) [Example 30],10 to 100,–
CC(C)Oc1ccc(-c2nc(-c3cccc4c3CCCC43CC(=O)N(CCO)C3)no2)cc1C#N (stereo not drawn) [Example 33],≤ 10,–
CC(C)Oc1ccc(-c2nc(-c3cccc4c3CCC43CC(=O)N(CCO)C3=O)no2)cc1C#N (stereo not drawn) [Example 36],≤ 10,–
CC(C)Oc1ccc(-c2nc(-c3cccc4c3CCC43COC(=O)N3CCO)no2)cc1C#N (stereo not drawn) [Example 37],10 to 100,–
CC(C)Oc1ccc(-c2nc(-c3cccc4c3CCC43CC(=O)N(CCO)C3)ns2)cc1C#N (stereo not drawn) [Example 40],≤ 10,–
CC(C)Oc1ccc(-c2ncc(-c3cccc4c3CCC43CC(=O)N(CCO)C3)cn2)cc1C#N (stereo not drawn) [Example 44],≤ 10,–
CC(C)Oc1ccc(-c2nc(-c3cccc4c3CCC43CCN(C4CC(C(=O)O)C4)C3)no2)cc1C#N (stereo not drawn) [Example 47],≤ 10,–
"CC(C)Oc1ccc(-c2nc(-c3cccc4c3CC[C@@H]4NCCO)no2)cc1C#N [Ozanimod, reference compound]",–,"AUC [1, 2]: 1.12 µM·h; half-life [1, 2]: 314 min; clearance [1, 3]: 46.3 mL/min/kg; bioavailability [1, 2]: 41.6%"

# Further lines, with some results ahead:
EC50 (S1P1 receptor) [nM],Structure (SMILES),further results
> 100,COc1cccc(-c2nc(-c3cccc4c3CCC43CC(=O)N(CCO)C3)no2)c1 (stereo not drawn) [Example 5],–
> 100,COc1ccccc1-c1nc(-c2cccc3c2CCC32CC(=O)N(CCO)C2)no1 (stereo not drawn) [Example 6],–
> 100,N#Cc1ccc(-c2nc(-c3cccc4c3CCC43CC(=O)N(CCO)C3)no2)cc1 (stereo not drawn) [Example 7],–
> 100,N#Cc1cccc(-c2nc(-c3cccc4c3CCC43CC(=O)N(CCO)C3)no2)c1 (stereo not drawn) [Example 8],–
≤ 10,CC(C)Oc1ccc(-c2nc(-c3cccc4c3CCC43CC(=O)N(CCO)C3)no2)cc1C(F)F (stereo not drawn) [Example 9],"AUC [1, 4]: 4.35 µM·h; half-life [1, 4]: 5960 min; clearance ([1]; male, Sprague-Dawley, rat, plasma, intravenous, 2 mg/kg, 2 mpk, read-out: Clearance): 2.52 mL/min/kg; bioavailability [1, 4]: 89.4%"
≤ 10,CC(C)Oc1ccc(-c2nc(-c3cccc4c3CCC43CC(=O)N(CCO)C3)no2)cc1OC(F)F (stereo not drawn) [Example 10],–
≤ 10,CC(C)Oc1ccc(-c2nc(-c3cccc4c3CCC43CC(=O)N(CCO)C3)no2)cc1Cl (stereo not drawn) [Example 11],–
> 100,O=C1CC2(CCc3c(-c4noc(-c5ccc(OC(F)(F)F)cc5)n4)cccc32)CN1CCO (stereo not drawn) [Example 14],–
> 100,O=C1CC2(CCc3c(-c4noc(-c5ccc(OC(F)F)cc5)n4)cccc32)CN1CCO (stereo not drawn) [Example 15],–
> 100,N#Cc1ccccc1-c1nc(-c2cccc3c2CCC32CC(=O)N(CCO)C2)no1 (stereo not drawn) [Example 18],–
> 100,O=C1CC2(CCc3c(-c4noc(-c5ccc(OCC6CC6)cc5)n4)cccc32)CN1CCO (stereo not drawn) [Example 19],–
10 to 100,CC(C)Nc1ncc(-c2nc(-c3cccc4c3CCC43CC(=O)N(CCO)C3)no2)cc1Br (stereo not drawn) [Example 20],–
≤ 10,CC(C)Oc1ccc(-c2nc(-c3cccc4c3CCC43CC(=O)N(CCO)C3)no2)cc1C#N (stereo not drawn) [Example 21 mixture],–
10 to 100,CC(C)Oc1ccc(-c2nc(-c3cccc4c3CCC43CC(=O)N(CCO)C3)no2)cc1S(C)(=O)=O (stereo not drawn) [Example 23],–
10 to 100,CC(C)Oc1ccc(-c2nc(-c3cccc4c3CCC43CC(=O)N(CCN(C)C)C3)no2)cc1C#N (stereo not drawn) [Example 27],–
≤ 10,CC(C)Oc1ccc(-c2nc(-c3cccc4c3CCC43CC(=O)N(CC(=O)O)C3)no2)cc1C#N (stereo not drawn) [Example 28],–
≤ 10,CC(C)Oc1ccc(-c2nc(-c3cccc4c3CCC43CC(=O)N(CCCCC(=O)O)C3)no2)cc1C#N (stereo not drawn) [Example 29],–
10 to 100,CC(C)Oc1ccc(-c2nc(-c3cccc4c3CCC43CCC(=O)N3CCO)no2)cc1C#N (stereo not drawn) [Example 31],–
10 to 100,CC(C)Oc1ccc(-c2nc(-c3cccc4c3CCC43CCC(CO)N3)no2)cc1C#N (stereo not drawn) [Example 32],–
≤ 10,CC(C)Oc1ccc(-c2nc(-c3cccc4c3CCC43CCC(=O)N(CCO)C3)no2)cc1C#N (stereo not drawn) [Example 34],–
≤ 10,CC(C)Oc1ccc(-c2nc(-c3cccc4c3CCC43CCN(CCO)C3)no2)cc1C#N (stereo not drawn) [Example 35],–
≤ 10,CC(C)Oc1ccc(-c2nnc(-c3cccc4c3CCC43CC(=O)N(CCO)C3)s2)cc1C#N (stereo not drawn) [Example 38],–
10 to 100,CC(C)Oc1ccc(-c2nsc(-c3cccc4c3CCC43CC(=O)N(CCO)C3)n2)cc1C#N (stereo not drawn) [Example 39],–
≤ 10,CC(C)Oc1ccc(-c2ncc(-c3cccc4c3CCC43CC(=O)N(CCO)C3)s2)cc1C#N (stereo not drawn) [Example 41],–
10 to 100,CC(C)Oc1ccc(-c2ncc(-c3cccc4c3CCC43CC(=O)N(CCO)C3)o2)cc1C#N (stereo not drawn) [Example 42],–
10 to 100,CC(C)Oc1ccc(-c2ccc(-c3cccc4c3CCC43CC(=O)N(CCO)C3)s2)cc1C#N (stereo not drawn) [Example 43],–
≤ 10,CC(C)Oc1ccc(-c2cnc(-c3cccc4c3CCC43CC(=O)N(CCO)C3)cn2)cc1C#N (stereo not drawn) [Example 45],–
≤ 10,CC(C)Oc1ccc(-c2nc(-c3cccc4c3CCC43CCN(CC(=O)O)C3)no2)cc1C#N (stereo not drawn) [Example 48],–
